In paper PMC11859905, “Flavonoids as Potential Modulators of Pancreatic Lipase Catalytic Activity” (Pharmaceutics, 2025):
Where two headings read alike, the source gives them in different places.

Columns and labels:
human pancreatic lipase = biological target: T1, human pancreatic lipase (Homo sapiens, UniProt P16233); assay: In vitro assay using human pancreatic lipase (4-MUO hydrolysis, fluorometric); type: biochemical; settings: for IC50: human PL 2 U/mL, 4-MUO 0.05 mM, mean ± SEM; for inhibitory activity against HPL (in words): at the maximum concentration that could be tested;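 for all read-outs here: Read-out is the initial rate of fluorescent 4-MU release as HPL cleaves the 4-MUO substrate, a rate that scales with the amount of enzyme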
T1 construct: PL from the human pancreas (triacylglycerol acyl hydrolase, EC 3.1.1.3); from tissue; host or cells: human pancreas
T1 sequence (P16233 17-465): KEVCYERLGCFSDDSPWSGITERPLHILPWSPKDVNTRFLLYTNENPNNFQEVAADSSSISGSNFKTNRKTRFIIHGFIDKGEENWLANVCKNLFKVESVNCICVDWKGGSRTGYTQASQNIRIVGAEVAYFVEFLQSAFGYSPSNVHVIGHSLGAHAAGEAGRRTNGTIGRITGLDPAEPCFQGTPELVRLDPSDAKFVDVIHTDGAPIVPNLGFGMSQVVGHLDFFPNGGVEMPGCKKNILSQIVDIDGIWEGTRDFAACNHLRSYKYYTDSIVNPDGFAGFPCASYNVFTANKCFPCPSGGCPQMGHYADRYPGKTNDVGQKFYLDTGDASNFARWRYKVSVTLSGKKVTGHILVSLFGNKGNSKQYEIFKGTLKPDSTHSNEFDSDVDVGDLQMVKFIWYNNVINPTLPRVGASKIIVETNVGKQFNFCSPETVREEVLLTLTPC

[1] = biological target: T2, porcine pancreatic lipase (Sus scrofa, UniProt P00591); assay: In vitro assay using porcine pancreatic lipase (4-MUO hydrolysis, fluorometric); settings: for inhibition at 100 µM / inhibition at 25 µM / inhibition at 50 µM: read-out: PL Inhibition (%) ± SEM, Porcine; for inhibitory activity against PPL (in words): at the maximum concentration that could be tested;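 for all read-outs here: product 4-methylumbeliferone formation tracked fluorometrically, catalytic rate from RFU slope over the 10–30 min window, compounds checked beforehand for own fluorescence, at least three independent experiments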
T2 sequence (P00591 1-450): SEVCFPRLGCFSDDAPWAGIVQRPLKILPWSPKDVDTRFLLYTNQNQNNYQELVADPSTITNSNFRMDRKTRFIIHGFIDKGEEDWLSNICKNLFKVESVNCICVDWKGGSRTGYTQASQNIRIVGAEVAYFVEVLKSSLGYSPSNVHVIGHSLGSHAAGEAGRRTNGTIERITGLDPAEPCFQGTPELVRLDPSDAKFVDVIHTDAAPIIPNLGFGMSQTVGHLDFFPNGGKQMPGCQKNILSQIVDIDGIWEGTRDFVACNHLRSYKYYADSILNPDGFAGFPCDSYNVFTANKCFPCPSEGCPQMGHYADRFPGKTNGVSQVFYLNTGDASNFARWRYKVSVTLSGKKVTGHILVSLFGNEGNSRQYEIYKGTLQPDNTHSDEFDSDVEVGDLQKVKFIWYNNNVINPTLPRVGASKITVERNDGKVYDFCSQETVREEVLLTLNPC

[2] = read-out: PL Inhibition (%) ± SEM, Human
[3] = at 50 μM, read-out: PL Inhibition (%) ± SEM, Human

Oc1cc(O)c2c(c1)OC(c1cc(O)c(O)c(O)c1)C(O)C2 (single isomer, unassigned; (-)) [Flavonoid 40, (–)-Epigallocatechin]
inhibition at 100 µM (human pancreatic lipase; [2]): < 30% | inhibition at 100 µM [1]: < 30%

O=c1cc(-c2ccccc2)oc2ccccc12 [Flavonoid 1, Flavone]
inhibition at 100 µM (human pancreatic lipase; [2]): < 30% | inhibition at 100 µM [1]: < 30%

O=c1cc(-c2cccc(O)c2)oc2ccccc12 [Flavonoid 2]
inhibition at 100 µM (human pancreatic lipase; [2]): < 30% | inhibition at 100 µM [1]: < 30%

O=c1cc(-c2ccc(O)cc2)oc2ccccc12 [Flavonoid 3]
inhibition at 25 µM (human pancreatic lipase; [2]): < 30% | inhibition at 25 µM [1]: < 30%

O=c1cc(-c2ccc(O)c(O)c2)oc2ccccc12 [Flavonoid 4]
inhibition at 100 µM (human pancreatic lipase; [2]): < 30% | inhibition at 100 µM [1]: < 30%

O=c1cc(-c2ccccc2)oc2cccc(O)c12 [Flavonoid 5]
inhibition at 50 µM (human pancreatic lipase; [3]): < 30% | inhibition at 50 µM [1]: < 30%

O=c1cc(-c2cccc(O)c2)oc2cccc(O)c12 [Flavonoid 6]
inhibition at 25 µM (human pancreatic lipase; [2]): 32.3 ± 0.1% | inhibition at 25 µM [1]: < 30%

O=c1cc(-c2ccc(O)cc2)oc2cccc(O)c12 [Flavonoid 7]
inhibition at 25 µM (human pancreatic lipase; [2]): < 30% | inhibition at 25 µM [1]: < 30%

O=c1cc(-c2ccc(O)c(O)c2)oc2cccc(O)c12 [Flavonoid 8]
inhibition at 50 µM (human pancreatic lipase; [2]): < 30% | inhibition at 50 µM [1]: 46 ± 2%

O=c1cc(-c2ccccc2)oc2cc(O)ccc12 [Flavonoid 9]
inhibition at 50 µM (human pancreatic lipase; read-out: PL Inhibition (%) ± SEM, Human, at 50 μM): < 30% | inhibition at 50 µM [1]: < 30%

O=c1cc(-c2cccc(O)c2)oc2cc(O)ccc12 [Flavonoid 10]
inhibition at 100 µM (human pancreatic lipase; [2]): < 30% | inhibition at 100 µM [1]: < 30%

O=c1cc(-c2ccccc2)oc2cc(O)cc(O)c12 [Flavonoid 13, Chrysin]
inhibition at 50 µM (human pancreatic lipase; [3]): < 30% | inhibition at 50 µM [1]: < 30%

O=c1cc(-c2cccc(O)c2)oc2cc(O)cc(O)c12 [Flavonoid 14]
IC50 (human pancreatic lipase): 54 ± 5 µM | IC50 [1]: 73 ± 7 µM

O=c1cc(-c2ccc(O)cc2)oc2cc(O)cc(O)c12 [Flavonoid 15, Apigenin]
IC50 (human pancreatic lipase): 75 ± 2 µM | IC50 [1]: 41 ± 1 µM

O=c1cc(-c2ccc(O)c(O)c2)oc2cc(O)cc(O)c12 [Flavonoid 16, Luteolin]
inhibition at 50 µM (human pancreatic lipase; [3]): 54 ± 2% | IC50 [1]: 32 ± 2 µM

O=c1c(-c2ccc(O)cc2)coc2cc(O)cc(O)c12 [Flavonoid 17, Genistein]
inhibition at 100 µM (human pancreatic lipase; [2]): < 30% | inhibitory activity against HPL (in words) (human pancreatic lipase): did not show significant inhibitory activity | inhibitory activity against PPL (in words) [1]: did not show significant inhibitory activity | inhibition at 100 µM [1]: < 30%

O=c1c(O)c(-c2ccc(O)c(O)c2)oc2ccccc12 [Flavonoid 18]
inhibition at 50 µM (human pancreatic lipase; [3]): 44 ± 5% | inhibitory activity against HPL (in words) (human pancreatic lipase): did not show significant inhibitory activity | inhibitory activity against PPL (in words) [1]: did not show significant inhibitory activity | inhibition at 50 µM [1]: 41 ± 4%

O=c1c(O)c(-c2ccccc2)oc2cc(O)cc(O)c12 [Flavonoid 23, Galangin]
inhibition at 50 µM (human pancreatic lipase; [3]): < 30% | inhibition at 50 µM [1]: 41 ± 1%

O=c1c(O)c(-c2ccc(O)cc2)oc2cc(O)cc(O)c12 [Flavonoid 24, Kaempferol]
inhibition at 100 µM (human pancreatic lipase; [2]): 39 ± 3% | IC50 ([1]; read-out: IC50 (μM) ± SEM, Porcine, porcine PL 0.04 mg/mL, 4-MUO 0.05 mM, mean ± SEM): 79 ± 6 µM
